Laboratory results from patent publication US20230293535A1, “ERBB/BTK INHIBITORS” (Dizal (Jiangsu) Pharmaceutical Co., Ltd., priority 2018, published 2023).
Where a name gives a salt, the structure may show the parent alone. Read-outs that look alike come from different tables or passages of the source.

What was measured:
Assay type in all cases: cell-based
[1] = target: T1, human Her2 exon 20 insertion mutation YVMA (Homo sapiens, UniProt P04626, INS775YVMA); experiment: Her2 Exon 20 YVMA insertion cellular phosphorylation inhibition (MSD p-Her2 Y1248/total Her2); settings: Her2 YVMAins cells, 4 h compound;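 further: lentivirally transduced NIH-3T3 cells in 1% FBS medium, electrochemiluminescent MSD read-out, graded compound concentrations at 37 °C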
T1 construct: expressed in transfected cells; host or cells: NIH-3T3, lentiviral transduction, puromycin selection
T1 sequence (P04626 with tags, fused parts or gaps INS775YVMA): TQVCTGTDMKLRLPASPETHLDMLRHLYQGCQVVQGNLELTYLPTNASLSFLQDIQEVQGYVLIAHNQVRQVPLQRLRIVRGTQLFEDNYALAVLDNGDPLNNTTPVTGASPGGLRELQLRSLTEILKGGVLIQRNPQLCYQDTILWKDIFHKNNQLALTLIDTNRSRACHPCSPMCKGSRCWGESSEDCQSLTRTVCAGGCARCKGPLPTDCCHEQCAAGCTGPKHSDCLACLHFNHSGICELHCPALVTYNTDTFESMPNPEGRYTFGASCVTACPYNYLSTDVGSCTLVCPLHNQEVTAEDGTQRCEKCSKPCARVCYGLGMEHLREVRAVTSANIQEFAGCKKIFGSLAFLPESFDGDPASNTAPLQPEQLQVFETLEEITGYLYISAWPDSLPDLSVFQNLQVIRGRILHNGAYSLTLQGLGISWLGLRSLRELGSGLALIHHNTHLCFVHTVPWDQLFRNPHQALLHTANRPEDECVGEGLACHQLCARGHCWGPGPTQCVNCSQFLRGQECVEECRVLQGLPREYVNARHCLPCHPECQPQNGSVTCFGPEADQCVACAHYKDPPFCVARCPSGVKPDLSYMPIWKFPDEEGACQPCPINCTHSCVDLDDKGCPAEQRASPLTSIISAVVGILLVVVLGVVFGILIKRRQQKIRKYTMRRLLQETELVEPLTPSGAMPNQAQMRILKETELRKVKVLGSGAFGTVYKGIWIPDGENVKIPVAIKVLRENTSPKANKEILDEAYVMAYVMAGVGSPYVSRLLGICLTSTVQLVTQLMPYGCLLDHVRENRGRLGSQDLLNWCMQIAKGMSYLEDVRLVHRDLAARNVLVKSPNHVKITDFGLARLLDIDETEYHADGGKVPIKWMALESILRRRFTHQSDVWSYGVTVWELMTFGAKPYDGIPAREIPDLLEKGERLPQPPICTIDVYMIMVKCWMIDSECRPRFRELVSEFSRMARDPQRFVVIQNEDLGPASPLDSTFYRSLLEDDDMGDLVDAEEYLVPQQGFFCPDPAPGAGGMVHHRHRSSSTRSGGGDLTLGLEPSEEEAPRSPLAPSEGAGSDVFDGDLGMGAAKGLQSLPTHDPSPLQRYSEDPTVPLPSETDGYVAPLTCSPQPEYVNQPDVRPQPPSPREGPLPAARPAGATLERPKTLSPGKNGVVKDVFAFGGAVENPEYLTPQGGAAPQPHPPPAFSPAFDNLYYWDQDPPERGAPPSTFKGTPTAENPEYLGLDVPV

Ba/F3 EGFR ASV ins cells = experiment: Cell proliferation, Ba/F3 EGFR ASV ins (CellTiter-Glo, 72 h); settings: Ba/F3 EGFR, 72 h;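 further: IL3-independent Ba/F3 cells transduced with EGFR V769_D770insASV, cellular ATP luminescence after compound exposure, growth relative to DMSO control with the day-0 baseline reading subtracted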
Method: (§1) WT or mutant cells were seeded in 384 well plates at appropriate concentrations with corresponding growth media supplemented with 10% FBS, for each experiment, identical plates were prepared in duplicates, and the plates were incubated overnight. On the next day, one of each duplicated plates was dosed with tested compounds at a series of concentrations, and another one of the duplicated plate was analysied for G0 value. The dosed plates were incubate for another 72 h at 37° C. with 5% CO2 and the number of viable cells in each well of the G0 plates or the dosed plates were measured by CellTiter-Glo® Luminescent Cell Viability Assay (Promega). This assay is a luminescent method for determining the number viable cells through measurement of cellular ATP concentration by detection of luciferase activity. Detection reagents (15 µl) was dispensed into per well, and the plates were incubate for 30 min at room temperature. Then, the luminescence in each well was measured using the Envision plate reader (PerkinElmer). The percentage of proliferation was calculated based on the formula: %Proliferation= 100 × (G3 value of sample well-Go value)/(G3 value of DMSO control-Go value).

[2] = test system: NCI-H1975 EGFR L858R/T790M cells; experiment: Cell proliferation, NCI-H1975 EGFR L858R/T790M (CellTiter-Glo, 72 h); settings: Homo sapiens, NCI-H1975, 72 h;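 further: viable cells quantified by luciferase-based ATP luminescence, proliferation expressed relative to DMSO-treated wells (100%) after subtracting a parallel plate read at the time of dosing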
EGFR L858R&T790M = target: T2, EGFR L858R&T790M (Homo sapiens, UniProt P00533, L858R/T790M); experiment: EGFR L858R and T790M cellular phosphorylation inhibition in NCI-H1975 (MSD); settings: NCI-H1975 cells, 4 h compound, p-EGFR(Y1068)/total EGFR; read-out: EGFR L858R and T790M mutation IC50;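 further: phosphorylated and total EGFR detected by electrochemiluminescence, cells exposed to compound in medium containing 1% FBS at 37 °C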
T2 construct: host or cells: NCI-H1975

TMD-8 cells = experiment: BTK (wt) cell proliferation, TMD-8 (CellTiter-Glo, 72 h); settings: Homo sapiens, TMD8, 72 h, TMD-8 cells, 72 h, CellTiter-Glo; read-out: BTK WT TMD-8 GI50;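 further: viable cells quantified by ATP-based luminescence, proliferation expressed as percent of DMSO control after subtracting a time-zero baseline plate read at dosing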
Method: OCI-LY-10 at 3,750 cells/well, TMD-8 and Ri-1 at 2,000 cells/well, and DB at 1,250 cells/well, respectively, were sorted into 384-well plates in RPMI1640 medium with 10% FBS. After overnight incubation, all cells were incubated with compound at a series of concentrations. Meanwhile, a duplicated plate of each cell line was prepared for measuring G0 value. The dosed plates were further incubated for 72 hours and the number of viable cells was measured by CellTiter-Glo® Luminescent Cell Viability Assay (Promega), a luminescent method for determining the number of viable cells through measurement of cellular ATP concentration using Envision plate reader (PerkinElmer). The percentage of proliferation was calculated as: % Proliferation = 100 × (G3 value of sample well - G0 value)/(G3 value of DMSO control - G0 value).

[3] = target: T3, human EGFR exon 20 H773_V774insNPH (Homo sapiens, UniProt P00533, INS773NPH); experiment: EGFR Exon20 NPH insertion cellular phosphorylation inhibition (MSD pEGFR Y1068/total EGFR); settings: Ba/F3 EGFR NPH ins cells, 4 h compound, p-EGFR(Y1068)/total EGFR;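 further: IL3-independent Ba/F3 cells with constitutively phosphorylated EGFR, compound exposure at 37 °C under 5% CO2, electrochemiluminescent MSD measurement of the p-EGFR to total EGFR ratio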
T3 construct: host or cells: Ba/F3
T3 sequence (P00533 with tags, fused parts or gaps INS773NPH): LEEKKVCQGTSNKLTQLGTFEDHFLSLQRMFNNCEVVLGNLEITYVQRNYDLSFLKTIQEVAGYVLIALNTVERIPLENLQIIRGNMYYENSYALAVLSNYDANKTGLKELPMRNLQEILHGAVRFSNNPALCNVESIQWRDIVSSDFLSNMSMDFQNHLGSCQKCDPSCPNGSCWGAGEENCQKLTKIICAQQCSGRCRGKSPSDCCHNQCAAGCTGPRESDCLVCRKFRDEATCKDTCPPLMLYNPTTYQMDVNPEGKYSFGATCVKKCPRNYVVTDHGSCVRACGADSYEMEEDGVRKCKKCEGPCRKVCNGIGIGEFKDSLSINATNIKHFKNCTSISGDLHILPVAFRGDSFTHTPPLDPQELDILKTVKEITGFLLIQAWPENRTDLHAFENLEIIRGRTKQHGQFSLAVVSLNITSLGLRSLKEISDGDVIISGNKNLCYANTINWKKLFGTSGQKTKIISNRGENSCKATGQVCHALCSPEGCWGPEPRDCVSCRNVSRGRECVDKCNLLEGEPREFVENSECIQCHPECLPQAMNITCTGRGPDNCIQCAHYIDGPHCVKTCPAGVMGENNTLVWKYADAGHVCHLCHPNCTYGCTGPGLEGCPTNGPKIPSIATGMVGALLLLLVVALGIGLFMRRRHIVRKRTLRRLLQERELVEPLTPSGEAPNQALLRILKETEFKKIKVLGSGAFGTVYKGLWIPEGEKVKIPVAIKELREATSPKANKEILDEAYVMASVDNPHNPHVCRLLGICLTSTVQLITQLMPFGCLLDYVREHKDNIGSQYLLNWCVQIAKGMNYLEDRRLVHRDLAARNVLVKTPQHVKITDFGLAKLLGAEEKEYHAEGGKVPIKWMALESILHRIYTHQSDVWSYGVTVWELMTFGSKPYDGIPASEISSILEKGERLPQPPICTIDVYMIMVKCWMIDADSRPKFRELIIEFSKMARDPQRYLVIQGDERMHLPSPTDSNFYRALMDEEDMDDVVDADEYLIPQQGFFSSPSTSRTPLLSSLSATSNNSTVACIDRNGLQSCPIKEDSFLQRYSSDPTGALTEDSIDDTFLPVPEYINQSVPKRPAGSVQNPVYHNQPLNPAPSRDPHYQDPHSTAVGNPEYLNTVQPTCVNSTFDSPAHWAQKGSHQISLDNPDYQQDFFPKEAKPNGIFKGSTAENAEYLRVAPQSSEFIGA
Method: One day before the test, WT or mutant cells were seeded in 96 well plates at appropriate concentrations with corresponding growth media supplemented with 1% FBS, and incubated overnight. The next day, tested compounds at a series of concentrations were added into each individual well of the plates, and the plates were incubated for 4 h at 37° C. with 5% CO2.
The EGFR (Y1068) phosphorylation level (activity) of cells in each well were then measured with MSD kit named “MULTI-SPOT®96 4-Spot HB Prototype EGFR Triplex [sequence]: pEGFR(Tyr1068),pEGFR(Tyr1173), Total EGFR” according to the manufacturer’s instruction (MESO SCALE DISCOVERY, Cat# N45ZB-1). The assay is an electrochemiluminescent method for determining both phosphorylated and total EGFR of cells with an MSD SECTOR® Imager and the ratio of p-EGFR/total EGFR can be generated by the machine.

[4] = target: T4, human EGFR exon 20 V769_D770insASV (Homo sapiens, UniProt P00533, INS769ASV); experiment: EGFR Exon20 ASV insertion cellular phosphorylation inhibition (MSD pEGFR Y1068/total EGFR); settings: Ba/F3 EGFR ASV ins cells, 4 h compound, p-EGFR(Y1068)/total EGFR;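 further: electrochemiluminescent readout on an MSD SECTOR Imager, IL3-independent transduced cells in medium with 1% FBS, compound concentration series at 37 °C and 5% CO2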
T4 construct: expressed in transfected cells; host or cells: Ba/F3 (DSMZ ACC-300), lentiviral transduction, puromycin selection, IL3 depletion
T4 sequence (P00533 with tags, fused parts or gaps INS769ASV): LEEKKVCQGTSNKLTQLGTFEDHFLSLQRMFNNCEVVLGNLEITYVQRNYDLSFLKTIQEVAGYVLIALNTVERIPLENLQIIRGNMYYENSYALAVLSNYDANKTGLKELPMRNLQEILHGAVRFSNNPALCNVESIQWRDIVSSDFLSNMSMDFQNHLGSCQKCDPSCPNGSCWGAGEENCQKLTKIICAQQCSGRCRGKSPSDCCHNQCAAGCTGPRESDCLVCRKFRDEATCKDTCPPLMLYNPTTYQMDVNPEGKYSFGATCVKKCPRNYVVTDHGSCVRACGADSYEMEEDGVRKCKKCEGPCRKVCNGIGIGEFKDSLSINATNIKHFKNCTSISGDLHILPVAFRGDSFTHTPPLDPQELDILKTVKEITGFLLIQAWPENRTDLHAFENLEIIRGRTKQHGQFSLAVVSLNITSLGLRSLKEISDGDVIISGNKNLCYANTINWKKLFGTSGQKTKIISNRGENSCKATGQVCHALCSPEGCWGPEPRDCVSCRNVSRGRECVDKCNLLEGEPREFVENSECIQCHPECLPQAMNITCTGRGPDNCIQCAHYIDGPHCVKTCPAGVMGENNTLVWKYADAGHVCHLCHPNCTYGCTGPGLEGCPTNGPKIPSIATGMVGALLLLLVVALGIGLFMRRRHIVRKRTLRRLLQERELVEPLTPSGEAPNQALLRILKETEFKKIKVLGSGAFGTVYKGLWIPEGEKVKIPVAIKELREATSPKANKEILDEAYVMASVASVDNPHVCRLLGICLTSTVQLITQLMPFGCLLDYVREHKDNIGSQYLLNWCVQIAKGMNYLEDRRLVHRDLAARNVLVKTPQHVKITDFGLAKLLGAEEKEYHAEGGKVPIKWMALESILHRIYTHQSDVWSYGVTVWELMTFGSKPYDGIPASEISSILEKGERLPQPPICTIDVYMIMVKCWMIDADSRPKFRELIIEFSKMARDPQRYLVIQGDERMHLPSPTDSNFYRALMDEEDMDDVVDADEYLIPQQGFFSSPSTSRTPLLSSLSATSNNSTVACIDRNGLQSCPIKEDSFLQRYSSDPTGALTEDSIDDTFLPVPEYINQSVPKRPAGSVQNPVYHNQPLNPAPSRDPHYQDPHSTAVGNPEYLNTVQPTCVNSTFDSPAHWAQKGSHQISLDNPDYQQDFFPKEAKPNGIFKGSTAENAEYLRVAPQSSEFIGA

DB cells = experiment: BTK (wt) cell proliferation, DB (CellTiter-Glo, 72 h); settings: Homo sapiens, DB, DB cells, CellTiter-Glo, read-out: Non-BCR activated DB GI50;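 further: DB cells in 384-well plates given a dilution series of compound, viable cells read by ATP luminescence, growth expressed versus DMSO control after subtracting a time-zero plate reading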
WT EGFR cell line A-431 = experiment: Cell proliferation, WT EGFR A431 (CellTiter-Glo, 72 h); settings: Homo sapiens, A-431, 72 h;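 further: proliferation from a luminescent ATP viability signal, expressed as 100 × (treated minus time-zero plate) over (DMSO control minus time-zero plate), cells grown with 10% FBS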
Ri-1 cells = experiment: BTK (wt) cell proliferation, Ri-1 (CellTiter-Glo, 72 h); settings: Ri-1, 72 h, Ri-1 cells, 72 h, CellTiter-Glo; read-out: BTK WT Ri-1 GI50;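 further: viable cells quantified as cellular ATP luminescence, proliferation normalized to a time-zero plate and the DMSO control, compounds tested across a dilution series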
[5] = test system: Her2 exon 20 insertion YVMA transduced NIH-3T3 cell line; experiment: Cell proliferation, Her2 YVMAins NIH-3T3 (CellTiter-Glo, 72 h); settings: Mus musculus, NIH3T3, 72 h, Her2 YVMAins cells, 72 h proliferation; read-out: Her2 Exon 20 YVMA insertion GI50;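 further: viable cells quantified by ATP luminescence, growth over a day-zero baseline plate expressed as percent of DMSO control growth, compound dilution series in 10% FBS medium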
WT EGFR = target: T5, WT EGFR (Homo sapiens, UniProt P00533); experiment: WT EGFR cellular phosphorylation inhibition in A-431 (hEGF stimulated, MSD); settings: A431 cells, 4 h compound, then 100 ng/ml hEGF 10 min;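 further: electrochemiluminescence read-out of EGFR Tyr1068 phosphorylation expressed as ratio to total EGFR, cells kept in medium with 1% FBS, compounds tested as a concentration series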
T5 construct: host or cells: A-431
T5 sequence (P00533 25-1210): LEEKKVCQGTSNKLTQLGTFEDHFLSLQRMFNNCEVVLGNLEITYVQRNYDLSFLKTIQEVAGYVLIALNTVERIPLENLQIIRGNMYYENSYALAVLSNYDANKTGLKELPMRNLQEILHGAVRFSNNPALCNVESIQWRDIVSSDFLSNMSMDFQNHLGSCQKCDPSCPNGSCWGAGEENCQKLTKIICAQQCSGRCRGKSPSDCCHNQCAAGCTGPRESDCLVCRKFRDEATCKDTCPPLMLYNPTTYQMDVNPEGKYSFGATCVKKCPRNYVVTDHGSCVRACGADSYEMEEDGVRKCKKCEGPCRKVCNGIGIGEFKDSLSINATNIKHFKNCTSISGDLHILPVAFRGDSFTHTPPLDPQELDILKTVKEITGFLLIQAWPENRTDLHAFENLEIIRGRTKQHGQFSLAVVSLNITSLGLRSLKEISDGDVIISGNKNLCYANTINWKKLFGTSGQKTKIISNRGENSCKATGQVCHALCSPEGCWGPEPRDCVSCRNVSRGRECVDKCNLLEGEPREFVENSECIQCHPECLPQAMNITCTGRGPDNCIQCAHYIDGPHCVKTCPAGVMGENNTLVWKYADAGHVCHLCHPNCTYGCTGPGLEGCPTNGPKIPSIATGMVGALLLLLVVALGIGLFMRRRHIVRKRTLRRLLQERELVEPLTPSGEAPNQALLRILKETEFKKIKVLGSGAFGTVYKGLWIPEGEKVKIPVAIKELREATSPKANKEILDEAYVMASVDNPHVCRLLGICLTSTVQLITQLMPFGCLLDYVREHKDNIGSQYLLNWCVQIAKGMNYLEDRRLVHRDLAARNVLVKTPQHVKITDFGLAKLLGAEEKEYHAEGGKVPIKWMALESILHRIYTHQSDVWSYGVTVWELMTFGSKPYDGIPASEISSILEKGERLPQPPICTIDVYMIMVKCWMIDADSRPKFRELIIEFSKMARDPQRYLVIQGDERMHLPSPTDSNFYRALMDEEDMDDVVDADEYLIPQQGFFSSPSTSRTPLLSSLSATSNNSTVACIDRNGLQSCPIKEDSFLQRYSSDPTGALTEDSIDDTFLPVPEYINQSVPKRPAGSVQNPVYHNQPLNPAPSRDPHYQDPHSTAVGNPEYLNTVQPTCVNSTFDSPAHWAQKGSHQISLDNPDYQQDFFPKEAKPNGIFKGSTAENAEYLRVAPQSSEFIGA

Ba/F3 EGFR NPH ins cells = experiment: Cell proliferation, Ba/F3 EGFR NPH ins (CellTiter-Glo, 72 h); settings: Ba/F3 EGFR, 72 h;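 further: IL3-independent cells carrying constitutively phosphorylated EGFR, compound dilution series, viable cells quantified by ATP luminescence, growth relative to DMSO wells after subtracting pre-dosing (day 0) baseline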
Method: Similar to recombinant human EGFR exon 20 H769_V770insASV Ba/F3 cell line, the recombinant human EGFR exon 20 H773_V774insNPH Ba/F3 cell line also expresses constitutively phosphorylated EGFR protein and proliferates in the absence of IL3, which could be used for in vitro PD and anti-proliferation assays.
as §1

OCI-LY-10 cells = experiment: BTK (wt) cell proliferation, OCI-LY-10 (CellTiter-Glo, 72 h); settings: Homo sapiens, OCI-Ly10, 72 h, OCI-LY-10 cells, 72 h, CellTiter-Glo; read-out: BTK WT OCI-LY-10 GI50;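 further: viable cells quantified via cellular ATP luminescence, proliferation given as percent of DMSO control after subtracting a duplicate plate read at time of dosing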
[6] = Ba/F3 EGFR ASV ins, 72 h proliferation, read-out: EGFR Exon20 ASV insertion GI50
[7] = NCI-H1975, 72 h proliferation, read-out: EGFR L858R and T790M mutation GI50
[8] = A431, 72 h proliferation, read-out: EGFR WT A431 GI50
[9] = Ba/F3 EGFR NPH ins, 72 h proliferation, read-out: EGFR Exon20 NPH insertion GI50

SMILES | IC50 [1] [nM] | GI50 (Ba/F3 EGFR ASV ins cells; [6]) [nM] | GI50 [2, 7] [nM] | IC50 (EGFR L858R&T790M) [nM] | GI50 (TMD-8 cells) [nM] | IC50 [3] [nM] | IC50 [4] [nM] | GI50 (DB cells) [nM] | GI50 (WT EGFR cell line A-431; [8]) [nM] | GI50 (Ri-1 cells) [nM] | GI50 [5] [nM] | IC50 (WT EGFR) [nM] | GI50 (Ba/F3 EGFR NPH ins cells; [9]) [nM] | GI50 (OCI-LY-10 cells) [nM] | GI50 (Ba/F3 EGFR ASV ins cells; read-out: EGFR Exon20 ASV insertion GI50 (nM)) [nM] | GI50 ([2]; read-out: EGFR L858R and T790M mutation GI50 (nM)) [nM] | GI50 (WT EGFR cell line A-431; read-out: EGFR WT A431 GI50 (nM)) [nM] | GI50 (Ba/F3 EGFR NPH ins cells; read-out: EGFR Exon20 NPH insertion GI50 (nM)) [nM]
C=CC(=O)Nc1cc(Nc2ncc(Cl)c(Nc3cc(Cl)c(F)cc3C(C)(C)O)n2)c(OC)cc1N1CC[C@@H](N(C)C)C1 [Compound 74, (R)-N-(5-(5-chloro-4-(5-chloro-4-fluoro-2-(2-hydroxypropan-2-yl)phenylamino)pyrimidin-2-ylamino)-2-(3-(dimethylamino)pyrrolidin-1-yl)-4-methoxyphenyl) acrylamide] | 52.6 | 86.6 | 6 | 0.4 | 9.1 | 65.1 | 34.4 | > 3000 | 43 | 82 | 155 | 133 | 76.8 | 3.9 |  |  |  | 
C=CC(=O)Nc1cc(Nc2ncnc(Nc3cc(C4CC4)c(F)cc3C(C)(C)O)n2)c(OC)cc1N(C)CCN(C)C [Compound 75, N-(5-(4-(5-cyclopropyl-4-fluoro-2-(2-hydroxypropan-2-yl)phenylamino)-1,3,5-triazin-2-ylamino)-2-((2-(dimethylamino)ethyl)(methyl)amino)-4-methoxyphenyl)acrylamide] | 10.8 | 90.6 | 19.2 | 3.7 | 133 | 27.9 | 18.5 | > 3000 | 11.6 | 250 | 29.9 | 42.6 | 73 | 45.5 |  |  |  | 
C=CC(=O)Nc1cc(Nc2nccc(Nc3cc(Cl)c(F)cc3C(C)(C)O)n2)c(OC)cc1N1CC(F)(F)C[C@@H]1CN(C)C [Compound 82, (R)-N-(5-(4-(5-chloro-4-fluoro-2-(2-hydroxypropan-2-yl)phenylamino)pyrimidin-2-ylamino)-2-(2-((dimethylamino)methyl)-4,4-difluoropyrrolidin-1-yl)-4-methoxyphenyl)acrylamide] | 7 | 77.7 | 3.6 | 0.9 | 203 | 13.8 | 17.2 | > 3000 | 42 | 310 | 82.4 | 97.8 | 35.8 | 76.1 |  |  |  | 
C=CC(=O)Nc1cc(Nc2ncc(C(F)(F)F)c(Nc3cc(Cl)c(F)cc3C(C)(C)O)n2)c(OC)cc1N1CC[C@@H](N(C)C)C1 [Compound 84, (R)-N-(5-(4-(5-chloro-4-fluoro-2-(2-hydroxypropan-2-yl)phenylamino)-5-(trifluoromethyl)pyrimidin-2-ylamino)-2-(3-(dimethylamino)pyrrolidin-1-yl)-4-methoxyphenyl)acrylamide] | 1560 | 450 | 19.1 | 0.4 | 39.8 | 259 | 116 | > 3000 | 232 | 137 | 341 | 604 | 191 | 31.2 |  |  |  | 
C=CC(=O)Nc1cc(Nc2ncc(C#N)c(Nc3cc(Cl)c(F)cc3C(C)(C)O)n2)c(OC)cc1N1CC[C@@H](N(C)C)C1 [Compound 85, (R)-N (5-(4-(5-chloro-4-fluoro-2-(2-hydroxypropan-2-yl)phenylamino)-5-cyanopyrimidin-2-ylamino)-2-(3-(dimethylamino)pyrrolidin-1-yl)-4-methoxyphenyl)acrylamide] | 71.6 | 80.7 | 22.4 | 0.5 | 2.6 | 35.5 | 32.1 | > 3000 | 51.1 | 11 | 129 | 68.5 | 63.1 | 1.1 |  |  |  | 
C=CC(=O)Nc1cc(Nc2nccc(Nc3cc(Cl)c(F)cc3C(C)(C)O)n2)c(OC)cc1N1CC[C@H](N(C)C)C1 [Compound 87, (S)-N-(5-(4-(5-chloro-4-fluoro-2-(2-hydroxypropan-2-yl)phenylamino)pyrimidin-2-ylamino)-2-(3-(dimethylamino)pyrrolidin-1-yl)-4-methoxyphenyl)a crylamide] | 21.2 | 156 | 24.4 | 1 | 13.7 | 51.2 | 51.9 | 1210 | 84.8 | 48 | 827 | 362 | 140 | 22.3 |  |  |  | 
C=CC(=O)Nc1cc(Nc2nccc(Nc3cc(Cl)c(F)cc3C(C)(C)O)n2)c(OC)cc1N1C[C@H](F)C[C@@H]1CN(C)C [Compound 88, N-(5-(4-(5-chloro-4-fluoro-2-(2-hydroxypropan-2-yl)phenylamino)pyrimidin-2-ylamino)-2-((2R,4R)-2-((dimethylamino)methyl)-4-fluoropyrrolidin-1-yl)-4-methoxyphenyl) acrylamide formic acid salt] | 4.5 |  |  | 0.5 | 6.49 | 10.1 | 7.5 | > 3000 |  | 12 | 31.2 | 27.8 |  | 1.57 | 14 | 1.8 | 6.9 | 18.8
C=CC(=O)Nc1cc(Nc2nccc(Nc3cc(Cl)c(F)cc3C(C)(O)C(F)(F)F)n2)c(OC)cc1N1CC[C@@H](N(C)C)C1 (stereo partly drawn) [Compound 92, N-(5-(4-(5-chloro-4-fluoro-2-(1,1,1-trifluoro-2-hydroxypropan-2-yl)phenylamino)pyrimidin-2-ylamino)-2-((R)-3-(dimethylamino)pyrrolidin-1-yl)-4-methoxyphenyl) acrylamide] | 26 | 92.1 | 4.9 | 1.7 | 63.8 | 79.9 | 71.2 | 1200 | 40.6 | 146 | 212 | 765 | 84.7 | 228 |  |  |  | 
C=CC(=O)Nc1cc(Nc2ncnc(Nc3ccc4[nH]ccc4c3C(C)(C)O)n2)c(OC)cc1N(C)CCN(C)C [Compound 94, N-(2-((2-(dimethylamino)ethyl)(methyl)amino)-5-(4-(4-(2-hydroxypropan-2-yl)-1H-indol-5-ylamino)-1,3,5-triazin-2-ylamino)-4-methoxyphenyl)acrylamide] | 4.4 | 80.9 | 6.4 | 0.7 | 94.8 | 28.5 | 17.7 | > 3000 | 16.5 | 209 | 141 | 28.9 | 94.9 | 21.6 |  |  |  | 
